Assay results reported in patent US20210395327A1, “Growth Hormone-Releasing Hormone Antagonists and Uses Thereof” (United States Government As Represented By The Department …, priority 2019, published 2021).
Non-standard residues stand in square brackets, D forms with d. Residues, ends and D or L forms follow the SMILES beside them. *: point of attachment. Phenylacetyl(2,3,4,5,6-F5) = O=C(Cc1c(F)c(F)c(F)c(F)c1F)*; Phe(F5) = N[C@@H](Cc1c(F)c(F)c(F)c(F)c1F)C(=O)O; Phe(4-Cl) = N[C@@H](Cc1ccc(Cl)cc1)C(=O)O; hArg = N=C(N)NCCCC[C@H](N)C(=O)O; 12Ado = NCCCCCCCCCCCC(=O)O; Nle = CCCC[C@H](N)C(=O)O; Orn = NCCC[C@H](N)C(=O)O; Abu = CC[C@H](N)C(=O)O

Columns and labels:
[1] = system: GH release from rat pituitary cells; assay: Inhibition of GH release from rat pituitary cells in vitro (GH ELISA); format: cell-based; details: for Relative GH release: analogs 20 nM, then with 1 nM GHRH(1-29)NH2 for 30 minutes, Control = 1.00; for inhibitory effects on the release of GH, compared with MIA-602 (in words): rat pituitary cells in vitro, 20 nM
Experimental: In vitro assessment of the antagonistic activity of GHRH analogs. Rats were decapitated and pituitaries were collected in pre-warmed HBSS (Hanks' Balanced Salt Solution). Tissue was then cut into small pieces and digested in HBSS medium containing 3% BSA, 50 μg/ml gentamycin and 0.5% collagenase for 50 minutes at 37° C. Cells were further dispersed by pipetting and passed through a 100 μm cell strainer with the addition of DMEM containing 50 μg/ml gentamycin. 10% horse serum and 2.5% FBS (growth medium). Cells were harvested at 475×g for 2 minutes, resuspended in fresh growth medium and seeded onto poly-D-lysine-coated 24-well plates (7 pituitaries/plate). Cells were left to recover for 4 days. Growth medium was then replaced with serum-free DMEM for 4 hours and GHRH analogs (at concentration of 20 nM) were added in DMEM containing 0.1% BSA for 30 minutes. Cells were replenished with medium containing the same concentration of the analogs and 1 nM GHRH(1-29)NH2 for 30 minutes. Medium from this step was collected, centrifuged at 800 g for 3 minutes and GH concentration was determined by ELISA (ALPCO Diagnostics, Mill Valley, Calif.) according to the manufacturer's instruction.

HCC827 lung cancer cells = assay: In vitro cell viability, HCC827; format: cell-based, human; details: for In vitro relative inhibitory potency in comparison to MIA-602, HCC827: Table 3B, 5 μM for 72 H, MIA-602 = 1
Summary of the method: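 Human tumour lines were exposed to GHRH antagonist at 1, 2.5 or 5 μM for 72 h with medium refreshed every 48 h, after 24 h in low-serum (0.5% FBS) medium. Cell viability (CellTiter 96) was expressed as inhibition relative to MIA602.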

[2] = system: stomach cancer N87 xenograft; assay: Xenograft tumor growth in nude mice, N87; format: in vivo; details: for % Inhibition: vs control
Experimental: The peptides' activity was compared with GHRH antagonist MIA-602. All statistical analyzses were performed from comparing GHRA antagonists to non-treated tumor (control).
Peptides and chemicals. GHRH antagonists MIA-602 and AVR-GHRH antagonists (see Table 2 above) were synthesized by solid phase methods and purified by HPLC. The peptides were dissolved in DMSO and further diluted in 10% 1,2-propanediol. The final concentration of peptides was 50 µg/ml in 10% 1,2-propanediol containing 0.1% of DMSO.
Cell culture. Human cancer cell lines including pancreatic (PANC-1 and CFPAC-1), lung (HCC827 and H460), stomach (NCI-N87), prostate (PC3), brest (MX-1 and HCC-1806), colorectal (HT-29), and ovarian (SK-OV-3 and OVCAR-3) were obtained from the American Type Culture Collection (ATCC) and cultured at 37° C. in a humidified 95% air/5% CO2 atmosphere in the medium recommended by ATCC.
Xenograft models of human cancers in nude mice. Female athymic (NCr nu/nu) nude mice, 5- to 6-weeks-old, obtained from the Envigo labs (Tampa, Fla.), were housed in laminar airflow cabinets under pathogen-free conditions with a 12-h light/12-h dark schedule, and were fed autoclaved standard chow and water. To generate mice with xenografted tumors, tumor xenografts were initiated by subcutaneous (s.c.) injection of 107 human cancer cells into female nude mice. After about 4 weeks the resulting tumors were dissected and collected after removing necrosis tissues. The tumors were then cut into particles with size of 3 mm3 and transplanted s.c. by trocar needle into experimental animals. When tumors grew to the size of 50-60 mm3 (by volume), […] of 5 μg of GHRH antagonists MIA-602 or AVR-compounds (2-10 μg as indicated), or vehicle solutions (0.1% DMSO in 10% 1,2-propanediol) respectively. Tumor sizes were measured weekly.
Statistical analysis. One-way ANOVA followed by Bonferroni comparison were performed. Data are expressed as Mean±SEM. To determine statistical significance between animal groups, two-tailed Student's t-test was conducted. Differences were considered significant when p<0.05.
Results. […] FIG. 1A-N represents in vivo inhibition of tumor growth during the treatment with GHRH antagonist MIA-602 and selected AVR antagonists in nude mice xenografted with various human tumors including pancreatic cancer PANC-1 (FIG. 1A) and CFPAC-1 (FIG. 1I); lung cancer HCC827 (FIGS. 1B, C) and H460 (FIG. 1H); stomach cancer N87 (FIGS. 1D-F); colon cancer HT-29 (FIG. 1G); breast cancer MX-1 and HCC-1806 (FIGS. 1J, K); ovarian cancer SK-OV-3 and OVACAR-3 (FIGS. 1 L, M) and prostate cancer PC3 (FIG. 1N). See also Table 5.

[3] = Table 4E, Stomach Ca N87, 4 weeks, 2 μg/day s.c.
[4] = Table 4E, Stomach Ca N87, 4 weeks, 5 μg/day s.c.
[5] = Table 4D, Stomach Ca N87, 10 weeks, 2 μg/day s.c.
[6] = Table 4F, Stomach Ca N87, 4 weeks, 2 μg/day s.c.
[7] = Table 4F, Stomach Ca N87, 4 weeks, 5 μg/day s.c.

CCCC[C@H](NC(=O)[C@@H](NC(=O)[C@H](CC(=O)O)NC(=O)[C@H](CCC(N)=O)NC(=O)[C@H](CC(C)C)NC(=O)[C@H](CC(C)C)NC(=O)[C@H](CCCN)NC(=O)[C@H](Cc1c[nH]cn1)NC(=O)[C@H](C)NC(=O)[C@H](CO)NC(=O)[C@H](CC(C)C)NC(=O)[C@H](CCC(N)=O)NC(=O)[C@H](CC)NC(=O)[C@H](CC(C)C)NC(=O)[C@@H](NC(=O)[C@H](CCCN)NC(=O)[C@H](Cc1c[nH]cn1)NC(=O)[C@H](Cc1ccc(OC)cc1)NC(=O)[C@H](CCCCNC(=N)N)NC(=O)[C@H](C)NC(=O)[C@@H](NC(=O)[C@H](Cc1c(F)c(F)c(F)c(F)c1F)NC(=O)[C@@H](NC(=O)[C@H](C)NC(=O)[C@H](CC(=O)O)NC(=O)[C@@H](CCCNC(=N)N)NC(=O)[C@H](Cc1ccc(O)cc1)NC(=O)CCCCCCCCCCCNC(=O)Cc1c(F)c(F)c(F)c(F)c1F)[C@@H](C)CC)[C@@H](C)O)C(C)C)[C@@H](C)CC)C(=O)N[C@H](CCCNC(=N)N)C(=O)N[C@@H](CCCCNC(=N)N)C(=O)NCCCCCCCCCCCC(N)=O [AVR-553, 5FPhAC-Ada-Tyr-DArg-Asp-Ala-Ile-5FPhe-Thr-Ala-Har-Tyr(Me)-His-Orn-Val-Leu-Abu-Gln-Leu-Ser-Ala-His-Orn-Leu-Leu-Gln-Asp-Ile-Nle-DArg-Har-Ada-NH2] ({Phenylacetyl(2,3,4,5,6-F5)-12Ado}-Y[dR]DAI[Phe(F5)]TA[hArg]Y(Me)H[Orn]VL[Abu]QLSAH[Orn]LLQDI[Nle][dR][hArg][12Ado]-NH2)
Relative GH release [1]: 0.82 ± 0.04 | In vitro relative inhibitory potency in comparison to MIA-602, HCC827 (HCC827 lung cancer cells): 2.582 | Tumor Growth % [2, 3]: 532.7% | % Inhibition [2, 3]: 40.3% | Tumor Growth % [2, 4]: 283.3% | % Inhibition [2, 4]: 68.3%

CCCC[C@H](NC(=O)[C@@H](NC(=O)[C@H](CC(=O)O)NC(=O)[C@H](CCC(N)=O)NC(=O)[C@H](CC(C)C)NC(=O)[C@H](CC(C)C)NC(=O)[C@H](CCCCN)NC(=O)[C@H](CCCNC(=N)N)NC(=O)[C@H](C)NC(=O)[C@H](CO)NC(=O)[C@H](CC(C)C)NC(=O)[C@H](CCC(N)=O)NC(=O)[C@H](CC)NC(=O)[C@H](CC(C)C)NC(=O)[C@@H](NC(=O)[C@H](CCCCN)NC(=O)[C@H](CCCNC(=N)N)NC(=O)[C@H](Cc1ccc(OC)cc1)NC(=O)[C@H](CCCCNC(=N)N)NC(=O)[C@H](CC(N)=O)NC(=O)[C@@H](NC(=O)[C@H](Cc1ccc(Cl)cc1)NC(=O)[C@@H](NC(=O)[C@H](C)NC(=O)[C@H](CC(=O)O)NC(=O)[C@@H](CCCNC(=N)N)NC(=O)[C@H](Cc1ccc(O)cc1)NC(=O)CCCCCCCCCCCNC(=O)Cc1c(F)c(F)c(F)c(F)c1F)[C@@H](C)CC)[C@@H](C)O)C(C)C)[C@@H](C)CC)C(=O)N[C@H](CCCNC(=N)N)C(=O)N[C@@H](CCCCNC(=N)N)C(=O)NCCCCCCCCCCCC(N)=O [AVR-333, 5FPhAC-Ada-Tyr-DArg-Asp-Ala-Ile-Cpa-Thr-Asn-Har-Tyr(Me)-Arg-Lys-Val-Leu-Abu-Gln-Leu-Ser-Ala-Arg-Lys-Leu-Leu-Gln-Asp-Ile-Nle-DArg-Har-Ada-NH2] ({Phenylacetyl(2,3,4,5,6-F5)-12Ado}-Y[dR]DAI[Phe(4-Cl)]TN[hArg]Y(Me)RKVL[Abu]QLSARKLLQDI[Nle][dR][hArg][12Ado]-NH2)
Relative GH release [1]: 0.88 ± 0.03 | In vitro relative inhibitory potency in comparison to MIA-602, HCC827 (HCC827 lung cancer cells): 1.177 | Tumor Size (mm^3) [2, 5]: 454.00 mm^3 | % Inhibition [2, 5]: 62.9%

CCCC[C@H](NC(=O)[C@@H](NC(=O)[C@H](CC(=O)O)NC(=O)[C@H](CCC(N)=O)NC(=O)[C@H](CC(C)C)NC(=O)[C@H](CC(C)C)NC(=O)[C@H](CCCCN)NC(=O)[C@H](CCCNC(=N)N)NC(=O)[C@H](C)NC(=O)[C@H](CO)NC(=O)[C@H](CC(C)C)NC(=O)[C@H](CCC(N)=O)NC(=O)[C@H](CC)NC(=O)[C@H](CC(C)C)NC(=O)[C@@H](NC(=O)[C@H](CCCCN)NC(=O)[C@H](CCCNC(=N)N)NC(=O)[C@H](Cc1ccc(OC)cc1)NC(=O)[C@H](CCCCNC(=N)N)NC(=O)[C@H](C)NC(=O)[C@@H](NC(=O)[C@H](Cc1c(F)c(F)c(F)c(F)c1F)NC(=O)[C@@H](NC(=O)[C@H](C)NC(=O)[C@H](CC(=O)O)NC(=O)[C@@H](CCCNC(=N)N)NC(=O)[C@H](Cc1ccc(O)cc1)NC(=O)CCCCCCCCCCCNC(=O)Cc1c(F)c(F)c(F)c(F)c1F)[C@@H](C)CC)[C@@H](C)O)C(C)C)[C@@H](C)CC)C(=O)N[C@H](CCCNC(=N)N)C(=O)N[C@@H](CCCCNC(=N)N)C(=O)NC [AVR-235] ({Phenylacetyl(2,3,4,5,6-F5)-12Ado}-Y[dR]DAI[Phe(F5)]TA[hArg]Y(Me)RKVL[Abu]QLSARKLLQDI[Nle][dR][hArg]-NHMe)
Relative GH release [1]: 0.60 ± 0.02 | inhibitory effects on the release of GH, compared with MIA-602 (in words) [1]: higher inhibitory effects than MIA-602 | In vitro relative inhibitory potency in comparison to MIA-602, HCC827 (HCC827 lung cancer cells): 1.08 | relative inhibitory potency in comparison to MIA-602, Lung IICC827 (HCC827 lung cancer cells; antagonist 5 μM for 72 h, cell proliferation assay, MIA602 = 1): 1.506 | Tumor Size (mm^3) [2, 5]: 558.60 mm^3 | % Inhibition [2, 5]: 54.4% | Tumor Growth % [2, 6]: 312.80% | % Inhibition [2, 6]: 64.9%

CCCC[C@H](NC(=O)[C@@H](NC(=O)[C@H](CC(=O)O)NC(=O)[C@H](CCC(N)=O)NC(=O)[C@H](CC(C)C)NC(=O)[C@H](CC(C)C)NC(=O)[C@H](CCCCN)NC(=O)[C@H](CCCNC(=N)N)NC(=O)[C@H](C)NC(=O)[C@H](CO)NC(=O)[C@H](CC(C)C)NC(=O)[C@H](CCC(N)=O)NC(=O)[C@H](CC)NC(=O)[C@H](CC(C)C)NC(=O)[C@@H](NC(=O)[C@H](CCCCN)NC(=O)[C@H](CCCNC(=N)N)NC(=O)[C@H](Cc1c(F)c(F)c(F)c(F)c1F)NC(=O)[C@H](CCCCNC(=N)N)NC(=O)[C@H](C)NC(=O)[C@@H](NC(=O)[C@H](Cc1ccc(Cl)cc1)NC(=O)[C@@H](NC(=O)[C@H](C)NC(=O)[C@H](CC(=O)O)NC(=O)[C@@H](CCCNC(=N)N)NC(=O)[C@H](Cc1ccc(O)cc1)NC(=O)CCCCCCCCCCCNC(=O)Cc1c(F)c(F)c(F)c(F)c1F)[C@@H](C)CC)[C@@H](C)O)C(C)C)[C@@H](C)CC)C(=O)N[C@H](CCCNC(=N)N)C(=O)N[C@@H](CCCCNC(=N)N)C(=O)NCCCCCCCCCCCC(N)=O [AVR-353, 5FPhAC-Ada-Tyr-DArg-Asp-Ala-Ile-Cpa-Thr-Ala-Har-5FPhe-Arg-Lys-Val-Leu-Abu-Gln-Leu-Ser-Ala-Arg-Lys-Leu-Leu-Gln-Asp-Ile-Nle-DArg-Har-Ada-NH2] ({Phenylacetyl(2,3,4,5,6-F5)-12Ado}-Y[dR]DAI[Phe(4-Cl)]TA[hArg][Phe(F5)]RKVL[Abu]QLSARKLLQDI[Nle][dR][hArg][12Ado]-NH2)
Relative GH release [1]: 0.65 ± 0.08 | inhibitory effects on the release of GH, compared with MIA-602 (in words) [1]: higher inhibitory effects than MIA-602 | In vitro relative inhibitory potency in comparison to MIA-602, HCC827 (HCC827 lung cancer cells): 1.641 | Tumor Growth % [2, 6]: 433.70% | % Inhibition [2, 6]: 51.4% | Tumor Growth % [2, 7]: 312.20% | % Inhibition [2, 7]: 65.0%
